Measured values as given in BigSolDB 2.1.

Conditions: in water

NCCS(=O)(=O)O
Conditions	solubility (mole fraction)
278.15 K	0.00667
283.15 K	0.00809
288.15 K	0.0101
293.15 K	0.0121
298.15 K	0.0141
303.15 K	0.0172
308.15 K	0.0202
313.15 K	0.0232
318.15 K	0.0264
323.15 K	0.0318
